Earlier results, collected in US6943160B2, “Morpholine derivatives as antagonists of orexin receptors” (SmithKline Beecham plc, priority 2000, dated 2005).

What was measured:
[1] = system: orexin receptors; conditions: central administration at onset of normal sleep period, rat
[2] = system: freely-feeding rats; conditions: central administration, 4 hour time period

orexin-A: ligand (agonist) of the orexin receptors; human orexin-A has sequence SEQ ID NO: 1, pyroEPLPDCCRQKTCSCRLYELLHGAGNHAAGILTL-NH2
effect on arousal [1]: dose-related increase in arousal
increase in food intake over control rats receiving vehicle [2]: approximately four-fold
